Patent US7714023B2, “Treatment or prophylaxis of migraine or headache disorders using citalopram, escitalopram or citalopram metabolites” (priority 2004, dated 2010)
“And” between values parts separate entries of the source, which are not always exact repeats. Equal values may be shown once. Read-outs that look alike come from different tables or passages of the source.

Tests used:
DA transporter = target: T1, DA transporter (Rattus norvegicus, UniProt P23977); assay: DA transporter binding, rat striatum, [3H]GBR12935; conditions: Table 2, ten concentrations; read-out: Transporter and Muscarinic Receptor Binding IC50 DA
T1 construct: Rat striatum; from tissue; host or cells: rat striatum

DA uptake = DA uptake into rat corpora striatum synaptosomes; assay type: biochemical
NE transporter = target: T2, NE transporter (Rattus norvegicus, UniProt Q63380); assay: NE transporter binding, rat cerebral cortex, [3H]nisoxetine; conditions: Table 2, ten concentrations; read-out: Transporter and Muscarinic Receptor Binding IC50 NE
T2 construct: Rat cerebral cortex; from tissue; host or cells: rat cerebral cortex

NE transporter (h) = target: T3, NE transporter (h) (Homo sapiens, UniProt P23975); assay: NE transporter (h) binding, [3H]nisoxetine
T3 construct: expressed in transfected cells; host or cells: MDCK cells

5-HT uptake = 5-HT uptake into rat brain synaptosomes; assay type: biochemical
NE uptake = assay: NE uptake, rat hypothalamus synaptosomes; assay type: biochemical
5-HT transporter (h) = target: T4, 5-HT transporter (h) (Homo sapiens, UniProt P31645); assay type: binding
T4 construct: expressed in transfected cells; host or cells: HEK 293 cells

DA transporter (h) = target: T5, DA transporter (h) (Homo sapiens, UniProt Q01959); assay: DA transporter (h) binding, [3H]GBR12935
T5 construct: expressed in transfected cells; host or cells: CHO cells

5-HT transporter = target: T6, 5-HT transporter (Rattus norvegicus, UniProt P31652); assay: 5-HT transporter binding, rat cerebral cortex, [3H]paroxetine; conditions: Table 2, ten concentrations; read-out: Transporter and Muscarinic Receptor Binding IC50 5-HT rat
T6 construct: Rat cerebral cortex; from tissue; host or cells: rat cerebral cortex

[1] = system: cytochrome P450 enzymes (P450 4A, P4502C19, P450 2D6, P4501A2, P450 2C9, P450 2E1); conditions: in vitro; not by more than the stated degree; cited from earlier work
[2] = system: receptors for acetylcholine, histamine, norepinephrine, dopamine; monoamine oxidase; dopamine and norepinephrine reuptake sites; conditions: Willets, 1999; cited from earlier work
[3] = Table 3, rat brain synaptosomes, read-out: Monoamine Uptake IC50 DA
[4] = Table 3, human recombinant MDCK cells, [3H]-nisoxetine, read-out: Human Transporter Binding IC50 NE
[5] = Table 3, rat brain synaptosomes, read-out: Monoamine Uptake IC50 5-HT
[6] = Table 3, rat brain synaptosomes, read-out: Monoamine Uptake IC50 NE
[7] = Table 2, ten concentrations, read-out: Transporter and Muscarinic Receptor Binding IC50 5-HT human
[8] = Table 3, human recombinant CHO cells, [3H]-GBR 12935, read-out: Human Transporter Binding IC50 DA
[9] = Table 1, rat brain synaptosomes, read-out: Functional Uptake IC50 DA
[10] = Table 1, racemic forms, duplicate, read-out: Transporter Binding IC50 NE
[11] = Table 1, rat brain synaptosomes, read-out: Functional Uptake IC50 5-HT
[12] = Table 1, rat brain synaptosomes, read-out: Functional Uptake IC50 NE
[13] = Table 1, racemic forms, duplicate, read-out: Transporter Binding IC50 DA

T5 sequence (Q01959 whole entry): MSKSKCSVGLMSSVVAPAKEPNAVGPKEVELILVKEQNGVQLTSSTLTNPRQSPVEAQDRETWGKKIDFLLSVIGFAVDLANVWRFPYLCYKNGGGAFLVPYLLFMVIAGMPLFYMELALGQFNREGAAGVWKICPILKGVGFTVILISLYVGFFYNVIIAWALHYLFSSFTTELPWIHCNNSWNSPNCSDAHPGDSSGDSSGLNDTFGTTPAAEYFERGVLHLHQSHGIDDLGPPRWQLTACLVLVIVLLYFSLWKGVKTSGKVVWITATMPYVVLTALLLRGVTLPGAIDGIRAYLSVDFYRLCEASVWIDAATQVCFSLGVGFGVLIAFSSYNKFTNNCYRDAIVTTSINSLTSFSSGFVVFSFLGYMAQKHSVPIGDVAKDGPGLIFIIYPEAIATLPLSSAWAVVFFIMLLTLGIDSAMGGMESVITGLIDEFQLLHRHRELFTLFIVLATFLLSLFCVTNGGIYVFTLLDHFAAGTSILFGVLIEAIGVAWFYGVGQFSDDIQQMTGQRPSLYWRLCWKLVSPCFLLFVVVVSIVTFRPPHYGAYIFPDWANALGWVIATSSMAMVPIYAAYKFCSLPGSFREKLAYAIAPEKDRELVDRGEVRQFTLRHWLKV
T1 sequence (P23977 whole entry): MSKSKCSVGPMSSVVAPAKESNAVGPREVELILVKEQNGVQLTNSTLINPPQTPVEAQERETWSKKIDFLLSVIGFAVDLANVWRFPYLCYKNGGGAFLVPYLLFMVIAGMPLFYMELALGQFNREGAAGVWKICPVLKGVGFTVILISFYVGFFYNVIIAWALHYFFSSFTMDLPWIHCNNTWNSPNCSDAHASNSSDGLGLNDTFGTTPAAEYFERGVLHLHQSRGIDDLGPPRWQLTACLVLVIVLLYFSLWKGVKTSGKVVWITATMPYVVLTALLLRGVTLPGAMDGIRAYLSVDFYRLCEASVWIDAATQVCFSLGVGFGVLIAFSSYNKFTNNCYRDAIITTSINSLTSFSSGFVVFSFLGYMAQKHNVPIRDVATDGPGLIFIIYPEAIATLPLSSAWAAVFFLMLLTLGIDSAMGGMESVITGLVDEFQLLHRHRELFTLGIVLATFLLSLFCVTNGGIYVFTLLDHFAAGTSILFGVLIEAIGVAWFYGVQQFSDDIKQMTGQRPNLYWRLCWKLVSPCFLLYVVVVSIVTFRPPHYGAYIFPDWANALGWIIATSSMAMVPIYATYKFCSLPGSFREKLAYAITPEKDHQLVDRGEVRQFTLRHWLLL
T2 sequence (Q63380 1-617): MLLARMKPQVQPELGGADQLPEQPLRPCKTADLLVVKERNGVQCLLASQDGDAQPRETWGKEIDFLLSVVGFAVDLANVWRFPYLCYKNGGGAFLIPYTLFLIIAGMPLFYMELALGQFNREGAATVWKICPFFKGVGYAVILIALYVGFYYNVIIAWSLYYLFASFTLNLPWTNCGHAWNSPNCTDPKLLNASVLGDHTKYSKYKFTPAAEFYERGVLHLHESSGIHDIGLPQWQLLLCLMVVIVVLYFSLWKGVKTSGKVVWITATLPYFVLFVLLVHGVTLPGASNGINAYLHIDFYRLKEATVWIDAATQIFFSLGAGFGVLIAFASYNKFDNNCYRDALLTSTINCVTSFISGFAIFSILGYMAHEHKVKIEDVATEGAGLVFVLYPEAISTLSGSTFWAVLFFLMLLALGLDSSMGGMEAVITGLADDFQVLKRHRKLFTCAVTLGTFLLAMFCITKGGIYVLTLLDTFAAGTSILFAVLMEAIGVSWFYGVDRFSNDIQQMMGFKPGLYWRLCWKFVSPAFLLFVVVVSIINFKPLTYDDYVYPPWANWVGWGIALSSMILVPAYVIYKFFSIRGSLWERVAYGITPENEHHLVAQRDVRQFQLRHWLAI
T6 sequence (P31652 whole entry): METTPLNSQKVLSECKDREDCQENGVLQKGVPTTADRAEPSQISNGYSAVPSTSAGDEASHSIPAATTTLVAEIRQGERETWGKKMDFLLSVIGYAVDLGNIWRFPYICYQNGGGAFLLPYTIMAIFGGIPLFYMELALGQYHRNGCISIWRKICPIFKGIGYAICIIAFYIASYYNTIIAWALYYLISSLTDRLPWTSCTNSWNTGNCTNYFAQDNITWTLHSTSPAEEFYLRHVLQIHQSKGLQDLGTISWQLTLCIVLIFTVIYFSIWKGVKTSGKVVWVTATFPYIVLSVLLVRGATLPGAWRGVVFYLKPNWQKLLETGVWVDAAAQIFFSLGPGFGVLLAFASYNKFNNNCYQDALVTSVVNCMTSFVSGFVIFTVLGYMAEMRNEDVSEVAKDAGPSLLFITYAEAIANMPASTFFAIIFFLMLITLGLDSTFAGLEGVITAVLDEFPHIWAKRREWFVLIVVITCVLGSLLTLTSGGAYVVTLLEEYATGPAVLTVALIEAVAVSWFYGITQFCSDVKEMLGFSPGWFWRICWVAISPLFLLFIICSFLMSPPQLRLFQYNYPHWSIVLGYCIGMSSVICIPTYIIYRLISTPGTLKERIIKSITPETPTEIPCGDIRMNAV
T3 sequence (P23975 whole entry): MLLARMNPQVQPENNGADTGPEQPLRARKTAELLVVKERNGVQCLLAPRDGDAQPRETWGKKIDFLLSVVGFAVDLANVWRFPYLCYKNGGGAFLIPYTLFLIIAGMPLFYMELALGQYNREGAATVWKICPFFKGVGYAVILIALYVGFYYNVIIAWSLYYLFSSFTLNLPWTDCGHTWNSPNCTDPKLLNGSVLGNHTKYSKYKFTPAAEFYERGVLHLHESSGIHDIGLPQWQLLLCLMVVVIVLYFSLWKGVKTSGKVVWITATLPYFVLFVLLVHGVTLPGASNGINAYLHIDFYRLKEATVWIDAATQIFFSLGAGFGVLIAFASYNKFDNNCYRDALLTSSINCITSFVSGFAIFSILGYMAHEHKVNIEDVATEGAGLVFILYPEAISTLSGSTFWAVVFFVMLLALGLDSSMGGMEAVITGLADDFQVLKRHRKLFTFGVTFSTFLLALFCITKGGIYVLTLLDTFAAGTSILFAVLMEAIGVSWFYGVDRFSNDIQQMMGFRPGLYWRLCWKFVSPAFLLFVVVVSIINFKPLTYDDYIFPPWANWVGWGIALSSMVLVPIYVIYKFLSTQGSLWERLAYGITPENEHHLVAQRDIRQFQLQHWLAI
T4 sequence (P31645 whole entry): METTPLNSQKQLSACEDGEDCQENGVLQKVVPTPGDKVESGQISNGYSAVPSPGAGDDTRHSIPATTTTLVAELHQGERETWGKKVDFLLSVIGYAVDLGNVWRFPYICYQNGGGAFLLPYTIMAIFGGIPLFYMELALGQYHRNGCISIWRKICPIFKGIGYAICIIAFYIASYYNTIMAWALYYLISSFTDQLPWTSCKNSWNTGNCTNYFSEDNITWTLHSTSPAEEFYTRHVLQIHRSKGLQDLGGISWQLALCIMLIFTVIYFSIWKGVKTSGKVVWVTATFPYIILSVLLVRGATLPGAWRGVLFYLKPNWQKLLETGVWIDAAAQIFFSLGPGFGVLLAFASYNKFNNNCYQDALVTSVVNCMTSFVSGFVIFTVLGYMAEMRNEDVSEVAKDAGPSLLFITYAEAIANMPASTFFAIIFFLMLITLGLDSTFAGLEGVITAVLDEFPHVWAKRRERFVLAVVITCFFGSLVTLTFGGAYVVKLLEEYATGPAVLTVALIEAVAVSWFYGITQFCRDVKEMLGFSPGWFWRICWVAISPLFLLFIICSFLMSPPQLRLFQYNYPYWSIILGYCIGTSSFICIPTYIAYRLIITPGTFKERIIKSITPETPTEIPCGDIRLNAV

| SMILES | IC50 (DA transporter) [µM] | IC50 (DA uptake; [3]) [µM] | IC50 (NE transporter) [µM] | IC50 (NE transporter (h); [4]) [µM] | IC50 (5-HT uptake; [5]) [µM] | IC50 (NE uptake; [6]) [µM] | IC50 (DA transporter (h); [8]) [µM] | IC50 (5-HT transporter) [µM] | IC50 (DA uptake; [9]) [µM] | IC50 (5-HT uptake; [11]) [µM] | IC50 (NE uptake; [12]) [µM] | IC50 (DA transporter (h); [13]) | other results |
| --- | --- | --- | --- | --- | --- | --- | --- | --- | --- | --- | --- | --- | --- |
| N#Cc1ccc2c(c1)CO[C@]2(CCCN)c1ccc(F)cc1 [(R)(−)-Didesmethylcitalopram] | 14.1 | 27 | 3.62 | 5.52 | 0.13 | 1.3 | 38.9 | 0.027 |  |  |  |  | IC50 (5-HT transporter (h); [7]): 0.014 µM |
| N#Cc1ccc2c(c1)CO[C@@]2(CCCN)c1ccc(F)cc1 [(S)(+)-Didesmethylcitalopram] | 71.1 | 11 | 20.1 | 24.2 | 0.18 | 3.3 | 54.7 | 0.019 |  |  |  |  | fold higher affinity than its antipode, human 5-HT transporter (5-HT transporter (h)): 16 fold; IC50 (5-HT transporter (h); [7]): 0.219 µM |
| CN(C)CCCC1(c2ccc(F)cc2)OCc2cc(C#N)ccc21 (racemic) [Citalopram HBr (racemic), reference compound] |  | 13 | 4.74 |  |  | 4.9 |  |  |  |  |  |  |  |
| N#Cc1ccc2c(c1)COC2(CCCN)c1ccc(F)cc1 (racemic) [Racemic didesmethylcitalopram, 3-5-Cyano-1-(4-fluorophenyl)-1,3-dihydro-isobenzofuran-1-yl-propyl amine] |  |  |  |  |  |  |  |  | 8.9 | 0.038 | 1.6 | 13.2 µM | IC50 (NE transporter (h); [10]): 21.2 µM; IC50 (5-HT transporter (h); Table 1, racemic forms, duplicate, read-out: Transporter Binding IC50 5-HT): 0.085 µM |
| CNCCCC1(c2ccc(F)cc2)OCc2cc(C#N)ccc21 (racemic) [Racemic desmethylcitalopram] |  |  |  |  |  |  |  |  | 38 | 0.013 | 1.2 | 3.73 µM | IC50 (NE transporter (h); [10]): 15.5 µM; inhibition of the activity of cytochrome P450 enzymes [1]: mild degree |
| CNCCCC1c2ccccc2C=Cc2ccccc21 [Protriptyline, reference compound] |  |  |  |  |  | 0.0023 |  |  | 0.001 |  |  | 0.0067 µM and 0.015 µM |  |
| CNCCC[C@]1(c2ccc(F)cc2)OCc2cc(C#N)ccc21 [(R)(−)-Desmethylcitalopram] | 58 | 9.4 | 0.92 | 0.815 | 0.11 | 1.7 | 37.6 | 0.011 |  |  |  |  |  |
| CNCCC[C@@]1(c2ccc(F)cc2)OCc2cc(C#N)ccc21 [(S)(+)-Desmethylcitalopram] | 79.5 | 7.6 | 11.5 | 10.3 | 0.0058 | 4.1 | 27.7 | 0.0013 |  |  |  |  |  |
| CN(C)CCCC1(c2ccc(F)cc2)OCc2cc(C#N)ccc21 (racemic) [Racemic citalopram, (±)-1-(3-dimethylaminopropyl)-1-(4-fluorophenyl)-1,3-dihydroisobenzofuran-5-carbonitrile, reference compound] |  |  |  |  |  |  |  |  | 17 |  | 3.6 |  | affinity for receptors for various neurotransmitters, enzymes and other reuptake sites [2]: negligible affinity; inhibition of the activity of cytochrome P450 enzymes [1]: mild degree |
